According to patent US20230293560A1, “METHOD FOR MODULATING THE BLADDER MICROBIOME TO IMPROVE BLADDER HEALTH” (Kimberly-Clark Worldwide, Inc., priority 2020, published 2023):
Several values for one entry are separate records, joined by “and”; a condition that tells them apart may be missing. Equal values may be shown once.

How the values were obtained:
[1] = tested on: L. jensenii; test: High throughput assay screening of prebiotics; assay type: cell-based, Lactobacillus jensenii; parameters: key: ++: if growth and fermentation was equal to or greater than the positive control; +: if growth and fermentation was less than the positive control; +: if weak or no growth or fermentation; +^2: Bacteria demonstrated growth but no fermentation on the prebiotic; conditions: 2% w/v prebiotic in API 50 CHL media
Procedure: Most of the prebiotic compounds were initially tested in a high throughput assay screening process, described further in the Test Methods section herein, but three prebiotics (as noted in Table 3) were tested using a plate assay screening process as described in the Test Methods section herein. The prebiotics were tested against the commensal bacterial species of Lactobacillus crispatus, Lactobacillus gasseri, and Lactobacillus jensenii and against the pathogenic bacterial species of Streptococcus anginosus and Enterococcus faecalis as shown in Table 2. The bacterial species were taken from different sources, listed as culture collection, bladder, and vagina.
The results of the assay plate screening of the prebiotic compounds of Table 1 against the bacterial species of Table 2 is documented in Table 3 with the results being described by the following legend: • ++ if growth and fermentation was equal to or greater than the positive control • + if growth and fermentation was less than the positive control • […] if weak or no growth or fermentation • NT if not tested Some codes were not tested based on the use or non-use by the bacteria, as a way to efficiently move through the assay plate screening to the competition assay, described below.
• 1. Create a 2% w/v stock of prebiotic or positive control (glucose/dextrose) to be tested in API 50 CHL media (Biomerieux, Marcy-I'Étoile, France). API 50 CHL media contains minimal amounts of carbon for growth, and a bromocresol purple as a pH indicator of fermentation. Filter sterilize media with a […]. Store at 4-6° C. until use. • 2. Add 180 μL of media containing the prebiotic to a sterile, flat bottom 96-well microtiter plate (Corning, Corning, NY). • 3. From a freezer stock subculture the bacteria twice into De Man, Rogosa and Sharpe (MRS) broth (BD Difco, Becton Dickinson, Franklin Lakes, NJ), 37° C., stationary, anaerobic, overnight. • 4. From the last subculture, plate onto an MRS agar plate (Teknova, Hollister, CA) and grow 37° C., stationary, anaerobic, overnight. • 5. Create a bacterial suspension by using a sterile tipped swab to transfer colonies of bacteria into a PBS suspension blank to a 0.5 MacFarland (S. anginosus or E. faecalis) or a 1 MacFarland (Lactobacillus species) from the MRS agar plate. • 6. Enumerate the starting culture. • 7. Inoculate the media alone and media containing the prebiotic or positive control with 20 μL of the bacterial suspension. • 8. Place the plate into a spectrophotometer (Molecular Devices, San Jose, CA) and read the plate every 20 minutes for 24-48 hours. Read wavelengths (OD 430, OD 590, and OD 660). A color change to yellow caused by a drop in pH will be read by an increase in the OD430 value and a decrease in the OD590 value and is indicative of bacterial fermentation. An increase in OD660 values is indicative of an increase in turbidity and bacterial growth.

[2] = tested on: commensal and pathogenic bacterial species; test: Prebiotic screening, summary in words across species; assay type: cell-based; conditions: commensal (L. crispatus, L. gasseri, L. jensenii) and pathogenic (S. anginosus, E. faecalis) species
In short: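 Prebiotics at 2% w/v stock in API 50 CHL medium with bromocresol purple, inoculated with bacteria and read every 20 min for 24-48 h at OD430/590 (fermentation) and OD660 (growth), scored against a glucose control. Some tested on MRS-based agar with the prebiotic in place of glucose; competition assay with L. crispatus and S. anginosus incubated 48 h anaerobically at 37 °C, then enumerated on MRS and TSA.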

[3] = tested on: S. anginosus, KC18-1131-3B, Bladder (Sa-2); assay type: cell-based; conditions: Table 6, prebiotic 2%, one line per replicate
Procedure: (§1) Further testing was conducted to put the prebiotic compounds in competition assay testing, as further described in the test methods section herein. In the competition assay testing, each competition involved testing a single prebiotic compound with the commensal bacteria species of L. crispatus, KC18-1173-1, Bladder (“Lc-3”—Table 2) against the pathogenic bacterial species of S. anginosus, KC18-1131-3B, Bladder (“Sa-2”—Table 2).
(§2) • 1. An in house bacterial agar was created based on MRS agar (Kaplan and Hutkins, 2000) where the glucose is substituted for the prebiotic to be tested (either dextran MW ˜6,000, alpha-cyclodextrin, glucomannan, or pectin), bromocresol purple was included as a pH indicator. • 2. Bacteria were enumerated on each agar and color changes were recorded. Method for Competition Assay (Modified from “In Vitro Evaluation of Nutrients that Selectively Confer a Competitive Advantage to Lactobacilli” Vongsa et al, Beneficial Microbes 2016) • 1. Create 2% w/v stock of prebiotic or positive control (glucose/dextrose) as described above. • 2. From a freezer stock subculture the bacteria twice into De Man, Rogosa and Sharpe (MRS) broth (BD Difco, Becton Dickinson, Franklin Lakes, NJ), 37° C., stationary, anaerobic, overnight. • 3. From the last subculture, plate onto an MRS agar plate for L. crispatus KC18-1173-1 or blood agar for S. anginosus KC18-1131-3B, grow 37° C., stationary, anaerobic, overnight. • 4. Create a bacterial suspension by using a sterile tipped swab to transfer colonies of bacteria into a PBS suspension blank to a 2 MacFarland for both species. • 5. Enumerate the starting culture. • 6. Add 9.8 mL of prebiotic media into a 15 mL conical tube. • 7. Add 100 μL of the diluted bacteria to the media, incubate at 37° C., anaerobic, 48 hours. • 8. Harvest 100 μL from the tube containing the prebiotic and plate onto MRS agar and tryptic soy agar (TSA). • 9. Enumerate the bacteria on the MRS agar (both the L. crispatus and the S. anginosus). Small colonies are counted as S. anginosus and large colonies are counted as L. crispatus. • 10. Enumerate the bacteria on the TSA plate. […] Growth of the bacteria in the negative control (CHL media without prebiotic) was subtracted from the growth in the presence of the prebiotic or formulation.

[4] = tested on: L. crispatus, KC18-1173-1, Bladder (Lc-3); test: Competition assay, L. crispatus recovered; assay type: cell-based, Lactobacillus crispatus; conditions: Table 6, prebiotic 2%, one line per replicate
Procedure: as §1, §2

[5] = change vs start, background growth in CHL media subtracted, MRS agar

SMILES	growth and fermentation vs positive control, Lj-1 ([1]; L. jensenii KC17-4297-18, Bladder)	overall outcome of the screening of Table 3, in words [2]	growth and fermentation vs positive control, Lj-2 ([1]; L. jensenii KC17-4347-1, Bladder)	Sa-2 MRS Δ [3, 5]	Sa-2 TSA Δ ([3]; change vs start, background growth in CHL media subtracted, TSA)	Sa-2 MRS end ([3]; competition Sa-2 vs Lc-3, 48 hours, anaerobic, enumerated on MRS agar)	Sa-2 TSA end ([3]; competition Sa-2 vs Lc-3, 48 hours, enumerated on TSA)	Lc-3 MRS Δ [4, 5]	Lc-3 MRS end ([4]; competition Sa-2 vs Lc-3, 48 hours, enumerated on MRS agar)
OC[C@H]1O[C@H](OC[C@H]2OC(O)(CO)[C@@H](O)[C@@H]2O)[C@H](O)[C@@H](O)[C@@H]1O (stereo partly shown) [Palatinose (isomaltulose), isomaltulose]	+	growing at least some of the commensal bacterial species and either having less growth than the positive control or almost no growth of the pathogenic bacterial species	–	–	–	–	–	–	–
CO[C@H]1O[C@H](CO)[C@@H](O)[C@H](O)[C@H]1O [Alpha-Methyl-D-Glucoside]	–	growing at least some of the commensal bacterial species and either having less growth than the positive control or almost no growth of the pathogenic bacterial species	+	0.45 Log CFU/mL and 0.55 Log CFU/mL	0.62 Log CFU/mL and 0.41 Log CFU/mL	7.15 Log CFU/mL and 7.40 Log CFU/mL	7.47 Log CFU/mL and 7.54 Log CFU/mL	1.39 Log CFU/mL and 0.70 Log CFU/mL	6.52 Log CFU/mL and 6.78 Log CFU/mL
